From ChEMBL document CHEMBL1132601, “Design, synthesis, and structure-activity relationships of acetylene-based histamine H3 receptor antagonists” (J Med Chem, 1999)

target: Histamine H3 receptor (Rattus norvegicus, UniProt Q9QYN8); test: Binding affinity at histamine H3 receptor in rat cortical membranes by [3H]Nalpha-methylhistamine displacement.; format: cell membranes
Sequence (Q9QYN8 whole entry): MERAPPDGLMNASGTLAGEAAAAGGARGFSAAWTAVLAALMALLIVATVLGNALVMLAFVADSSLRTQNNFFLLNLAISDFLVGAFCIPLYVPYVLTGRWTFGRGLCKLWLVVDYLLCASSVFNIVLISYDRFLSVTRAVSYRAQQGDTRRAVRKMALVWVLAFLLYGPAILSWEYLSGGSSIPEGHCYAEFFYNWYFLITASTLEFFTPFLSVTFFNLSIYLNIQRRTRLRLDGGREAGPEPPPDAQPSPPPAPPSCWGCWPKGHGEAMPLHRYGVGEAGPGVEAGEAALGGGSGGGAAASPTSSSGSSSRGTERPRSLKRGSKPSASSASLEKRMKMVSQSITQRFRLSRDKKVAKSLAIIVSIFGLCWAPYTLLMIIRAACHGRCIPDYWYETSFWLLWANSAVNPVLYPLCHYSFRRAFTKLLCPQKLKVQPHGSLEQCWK

SMILES	Ki [nM]
CCCC#CC1CC1c1c[nH]cn1 (stereo not drawn)	5.1
C(#CCCC1CCCC1)CCc1c[nH]cn1	0.9
CC(C)(C)CCC#C[C@@H]1C[C@H]1c1c[nH]cn1 [CIPRALISANT]	0.12
